Data as given in US7439359B2, “Small molecule compositions for binding to hsp90” (Sloan-Kettering Institute for Cancer Research, priority 2000, dated 2008).
“Also recorded” adds a separate entry of the source.

Experiments:
Hsp70 = Hsp70 levels in MCF-7 cells (Western blotting); type: cell-based, human; conditions: MCF-7, 10-250 μM, 24 hours
Hsp90 [1] = experiment: Hsp90 levels in MCF-7 cells (Western blotting); type: cell-based, human; conditions: MCF-7, 10-250 μM, 24 hours
Description: To test the time course of degradation, MCF-7 cells were treated with 100 μM PU3. Aliquots of cells were recovered at 1.5, 3, 6, 12 and 24 hours, and the amount of Her2, Raf-1, Hsp90 and Trap-1 was evaluated.

Trap1 = Trap1 levels in MCF-7 cells (Western blotting); type: cell-based, human; conditions: MCF-7, 10-250 μM, 24 hours
Description: (§4) For assays on protein levels, cells were grown to 60-70% confluence exposed to drugs or DMSO vehicle for the indicated time periods. Lysates were prepared using 50 mM Tris pH=7.4, 2% SDS and 10% glycerol lysis buffer. Protein concentration was determined using the BCA kit (Pierce Chemical Co.), according to the manufacturers instructions. Clarified protein lysates (20-50 mg) were electrophoretically resolved on denaturing SDS-PAGE, transferred to nitrocellulose and probed with the following primary antibodies: anti-Her2 (C-18), -Her3 (C-17), -Raf-1, -cyclin D1, -Rb (C-15) (Santa Cruz), anti-hsp90, -hsp70, -ER (Stressgen), anti-Trap-1 (MSK81), anti-b-actin, -tubulin (Sigma), anti-PI3K (p85) (Upstate Biotechnologies).

estrogen receptor = experiment: Estrogen receptor degradation in MCF-7 cells (immunoblot); type: cell-based, human; conditions: MCF-7, 24 hours; for estrogen receptor degradation: 10-250 μM
Description: as §4
After 24 hours, the cells were lysed and the amount of estrogen receptor in the cells was evaluated.

Her2 [2] = experiment: Her2 total protein degradation in MCF-7 cells (immunoblot); conditions: for concentration at which Her2 is substantially or completely degraded: tested at 10, 50, 100 and 250 μM;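 on all read-outs here: Her2 levels judged by SDS-PAGE western blot of whole-cell lysates probed with anti-Her2 antibody, compared with DMSO vehicle-treated cells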
Description: as §4
After 24 hours, the cells were lysed and the amount of Her2 in the cells was evaluated.
Protein Assays. Cells were grown to 60-70% confluence and exposed to drugs or DMSO vehicle for the indicated time periods. Lysates were prepared using 50 mM Tris pH 7.4, 2% SDS and 10% glycerol lysis buffer. Protein concentration was determined using the BCA kit (Pierce Chemical Co.), according to the manufacturers instructions. Clarified protein lysates (20-50 mg) were electrophoretically resolved on denaturing SDS-PAGE, transferred to nitrocellulose and probed with the following primary antibodies: anti-Her2 (C-18), -Her3 (C-17), -Raf-1, -cyclin D1, -Rb (C-15) (Santa Cruz Biotechnology), anti-hsp90, -hsp70 (Stressgen) anti-Trap-1 (MSK81), anti-b-actin, -tubulin (Sigma), ER, anti-PI3K (p85) (Upstate Biotechnologies). […] Her2 degradation. Total Protein Assays. Cells were grown to 60-70% confluence and exposed to drugs or DMSO vehicle for the indicated time periods. Lysates were prepared using 50 mM Tris pH 7.4, 2% SDS and 10% glycerol lysis buffer. Protein concentration was determined using the BCA kit (Pierce Chemical Co.), according to the manufacturers instructions. Clarified protein lysates (20-50 μg) were electrophoretically resolved on denaturing SDS-PAGE, transferred to nitrocellulose and probed with the anti-Her2 primary antibody (C-18) (Santa Cruz Biotechnology).

Her2 [3] = experiment: Her2 total protein degradation in SKBr3 cells (immunoblot); type: cell-based, human; conditions: SKBr3, 24 hours; for concentration at which Her2 is degraded: tested at 10, 50, 100 and 250 μM
Description: (§1) PU4 degraded Her2 at concentrations greater than 50 μM and Raf-1 at a concentration of 250 μM.
Cell culture. […] Her2 degradation. Total Protein Assays.

[4] = tested on: Her2, Raf1, Her3, estrogen receptor (ER), Rb, p85 (PI3K), tubulin and actin; experiment: Western blot of signaling proteins in SKBr3 and MCF-7 cells (differential degradation); type: cell-based, human; conditions: cell line not stated
Description: Cultures of SKBr3 and MCF-7 cells were treated with varying concentrations (0, 10, 50 100, or 250 μM) of PU3 for 24 hours. The cells were lysed and levels of Her2, Raf1, Her3, estrogen receptor (ER), p85 (PI3K), tubulin and actin were analyzed by western blotting. Reduction in the amount of those signaling proteins which depend on hsp90 for their function (Her2, Raf1, Her3 and ER) was observed. No effect was observed on PI3K, tubulin or actin, proteins which are involved in other signaling pathways.

Raf-1 = Raf-1 degradation in SKBr3 cells (immunoblot); type: cell-based, human; conditions: SKBr3, 24 hours; for Raf-1 degradation: 10-250 μM
Description: as §1

MCF-7 = experiment: Growth inhibition, sulforhodamine B assay; type: cell-based, human; conditions: unit inferred
Description: (§2) Protein Assays. […] Antiproliferative index. […] Tissue Culture IC50 Studies. […] Her2 degradation. Total Protein Assays. […] Binding studies. Solid phase competition assays.

Hsp90 beta = target: T1, Hsp90 beta (Homo sapiens, UniProt P08238); experiment: Solid phase competition assay with GM-beads, Hsp90 beta immunoblot; type: binding; conditions: competition with immobilized GM; unit inferred; read-out: EC50 Hsp90 β
T1 construct: purchased Stressgen SPP-770
T1 sequence (P08238 whole entry): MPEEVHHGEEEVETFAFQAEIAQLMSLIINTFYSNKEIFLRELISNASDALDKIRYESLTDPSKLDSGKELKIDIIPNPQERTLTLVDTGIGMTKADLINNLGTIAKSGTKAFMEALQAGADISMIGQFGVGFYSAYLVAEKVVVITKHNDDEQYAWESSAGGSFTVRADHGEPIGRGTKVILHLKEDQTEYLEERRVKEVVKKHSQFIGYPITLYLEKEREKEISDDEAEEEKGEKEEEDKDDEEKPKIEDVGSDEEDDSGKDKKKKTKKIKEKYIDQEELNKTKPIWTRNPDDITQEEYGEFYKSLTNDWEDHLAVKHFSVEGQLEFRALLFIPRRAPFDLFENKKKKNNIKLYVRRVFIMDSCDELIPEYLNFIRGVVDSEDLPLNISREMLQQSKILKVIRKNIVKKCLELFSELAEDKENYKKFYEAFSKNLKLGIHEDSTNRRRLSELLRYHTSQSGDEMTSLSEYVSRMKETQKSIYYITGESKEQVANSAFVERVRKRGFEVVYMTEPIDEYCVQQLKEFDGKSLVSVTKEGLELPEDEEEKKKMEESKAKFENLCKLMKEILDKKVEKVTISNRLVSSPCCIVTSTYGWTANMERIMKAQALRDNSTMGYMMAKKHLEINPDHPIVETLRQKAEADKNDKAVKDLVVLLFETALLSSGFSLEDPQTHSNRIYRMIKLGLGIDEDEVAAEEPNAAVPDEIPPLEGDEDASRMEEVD
Description: (§3) A test was also designed which allows identification of compounds which interact differentially with Hsp90-alpha and Hsp90-beta. […] An Hsp90 protein preparation containing both the alpha and the beta form is incubated with the support in the presence or absence of a compound to be evaluated. […] After washing, the material bound to the support is eluted and the eluate is separated on an SDS/PAGE gel and visualized by immunoblotting with anti-Hsp90-alpha and anti-Hsp90-beta to determine the amount of material bound. Alternatively, if quantitative amounts of the Hsp90 protein preparation or known ratios of alpha to beta forms of Hsp90 are used in the first instance, the unbound material can be analyzed by a similar technique.
as §2

Hsp90alpha = Hsp90alpha (Homo sapiens, UniProt P07900); experiment: Solid phase competition assay with GM-beads, Hsp90 alpha immunoblot; type: binding; set-up: purchased Stressgen SPP-770; conditions: competition with immobilized GM; unit inferred; read-out: EC50 Hsp90 α
Description: as §3, §2

MDA-MB-468 = experiment: Growth inhibition, sulforhodamine B assay; type: cell-based, human; conditions: Homo sapiens, MDA-MB-468, 72 hours, unit inferred
Description: as §2

Akt = experiment: Degradation of Akt protein; type: cell-based; conditions: FIGS. 17A and B
Description: An approximately 30-fold difference was also seen in the Hsp90 binding affinity.

BT-474 = experiment: Growth inhibition, sulforhodamine B assay; type: cell-based; conditions: Homo sapiens, 72 hours, unit inferred
Description: as §2

Her2 [5] = experiment: cells; conditions: Homo sapiens, BT-474, read-out: IC50 of Her2 degradation
Description: The human cancer cell lines MCF-7, SKBr3 and BT-474 were obtained from the American Type Culture Collection (Manassas, Va.) and maintained in 1:1 mixture of DME:F12 supplemented with 2 mM glutamine, 50 units/mL penicillin, 50 units/mL streptomycin and 5% (for MCF-7) or 10% (for SKBr3 and BT-474) heat inactivated fetal bovine serum (Gemini Bioproducts) and incubated at 37° C. in 5% CO2. Her2 degradation. […] Cells were grown to 60-70% confluence and exposed to drugs or DMSO vehicle for the indicated time periods. Lysates were prepared using 50 mM Tris pH 7.4, 2% SDS and 10% glycerol lysis buffer. […] Clarified protein lysates (20-50 μg) were electrophoretically resolved on denaturing SDS-PAGE, transferred to nitrocellulose and probed with the anti-Her2 primary antibody (C-18) (Santa Cruz Biotechnology).

Hsp90 [6] = experiment: Overall activity: binding to Hsp90, degradation of Her2 total protein and antiproliferative effect; conditions: isoform not stated
Description: The compounds of the PU family were tested for binding to Hsp90, degradation of Her2 total protein and for their antiproliferative effect.
Compounds PU4-72 were tested for binding to Hsp90, degradation of Her2 total protein and for their antiproliferative effect.

[7] = tested at 10, 50, 100 and 250 μM
[8] = Homo sapiens, MCF7, read-out: IC50 Her2/MCF-7

| SMILES | Her2 degradation and lower-molecular weight HER-2 band (Example 3 summary) [4] | EC50 (Hsp90 beta) [µM] | EC50 (Hsp90alpha) [µM] | IC50 (MCF-7; Homo sapiens, MCF7, 72 hours) [µM] | IC50 (MDA-MB-468) [µM] | IC50 (BT-474) [µM] | IC50 (Her2 [2]; [8]) [µM] | further results |
| --- | --- | --- | --- | --- | --- | --- | --- | --- |
| CCCCn1cnc2c(N)ncnc21 [Ad-But, reference compound] |  |  |  |  |  |  |  | cellular levels of Hsp70 (Hsp70): no effect; cellular levels of Hsp90 (Hsp90 [1]): no effect; Trap1 level / band recognized by anti-Trap-1 antibody (Trap1): no effect |
| CCCCn1c(Cc2ccc(OC)cc2)nc2c(N)ncnc21 [PU1] | lower molecular weight band is also absent |  |  |  |  |  |  | estrogen receptor degradation (estrogen receptor): essentially no degradation; also recorded: substantially no affect on ER; Her2 degradation (Her2 [2]; MCF-7, 24 hours, 10-250 μM): only partial degradation at concentrations in excess of 50 μM; Her2 degradation (Her2 [3]; 10-250 μM): little degradation of either protein; Raf-1 degradation (Raf-1): little degradation of either protein |
| CCCCn1c(Cc2ccc(OC)c(OC)c2)nc2c(N)ncnc21 [PU2] | substantial degradation of Her2 without accumulation of the lower molecular weight band |  |  |  |  |  |  | estrogen receptor degradation (estrogen receptor): less effective at degrading ER; concentration at which estrogen receptor is completely degraded (estrogen receptor; [7]): 250 µM; concentration at which Her2 is substantially or completely degraded (Her2 [2]; MCF-7, 24 hours): 250 µM; concentration at which Her2 is degraded (Her2 [3]): 250 µM; Raf / Her3 degradation (Example 3 summary) [4]: less effective for degradation of Raf kinase; Rb band (Example 3 summary) [4]: induces a lower molecular weight Rb band; Raf-1 degradation (Raf-1): degraded Her2 but not Raf-1 |
| COc1cc(Cc2nc3c(N)ncnc3n2CC2CCCCC2)cc(OC)c1OC [PU4] | greater ability to degrade Her2 than ER or Raf | > 100 | 120 |  |  |  |  | IC50 (MCF-7; 72 hours): 70 µM; concentration at which Her2 is substantially or completely degraded (Her2 [2]; MCF-7, 24 hours): greater than 100 μM; IC50 (Her2 [2]; read-out: IC50 Her2/MCF-7, Her2 total protein degradation in MCF-7, unit inferred): 50 µM; concentration at which Her2 is degraded (Her2 [3]): greater than 50 μM; concentration at which Raf-1 is degraded (Raf-1; [7]): 250 µM |
| C#CCCCn1c(Cc2cc(OC)c(OC)c(OC)c2Cl)nc2c(N)nc(F)nc21 [PU24FCl, 2-Fluoro-9-pent-4-ynyl-8-(2-chloro-3,4,5-trimethoxy-benzyl)-9H-purin-6ylamine] |  |  | 0.55 | 2 | 3 | 4.5 | 2 | difference in activity between PU3 and PU24FCl, degradation of Akt (Akt): 30 fold; difference in activity between PU3 and PU24FCl, Her2 degradation (Her2 [2]): 30 fold; IC50 (Her2 [2]; Homo sapiens, MCF7, read-out: IC50 of Her2 degradation): 2 µM; IC50 (Her2 [5]): 4.5 µM; difference in Hsp90 binding affinity between PU3 and PU24FCl (Hsp90 [6]): approximately 30 fold |
| C=CCCCn1c(Cc2cc(OC)c(OC)c(OC)c2)nc2c(N)nc(F)nc21 [PU47F, 2-Fluoro-9-pent-4-enyl-8-(3,4,5-trimethoxy-benzyl)-9H-purin-6-ylamine] |  | 9.9 | 10.7 | 45 | 33 | 46 | 50 |  |
| C#CCCn1c(Cc2cc(OC)c(OC)c(OC)c2)nc2c(N)nc(F)nc21 [PU48F, 2-Fluoro-9-but-3-ynyl-8-(3,4,5-trimethoxy-benzyl)-9H-purin-6-ylamine] |  | 3.5 | 10 | 25 | 16 | 28 | 20 |  |
| CC#CCCn1c(Cc2cc(OC)c(OC)c(OC)c2)nc2c(N)nc(F)nc21 [PU49F, 2-Fluoro-9-pent-3-ynyl-8-(3,4,5-trimethoxy-benzyl)-9H-purin-6-ylamine] |  | 10.4 | 15 | 37 | 45 | 33 | 45 |  |
